21 molecules from PubChem BioAssay (NCI) can be followed below.

Each structure is given as a SMILES string.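 The compound was tested at five concentrations on cells cultured in 96-well plates, with a 48-hour exposure period. Abbreviation: GI50, concentration required for 50% inhibition of growth. TGI is the concentration that stops growth completely.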

Test systems include OVCAR-5 ovarian; A549 NSCLC; U251 CNS; ACHN renal; T-47D breast; NCI-H23 lung; SK-MEL-5 melanoma; UACC-257 melanoma; MDA-MB-435; HOP-92 NSCLC.
Holding throughout (experiment): inhibition of tumour cell growth, NCI panel, 48 h

For the molecule `O=C1NC2CCCCC2N=C1CC(=O)c1ccc(Br)cc1` (stereo not given), the TGI in the experiment on OVCAR-5 ovarian, with A549 NSCLC, in the experiment with U251 CNS, in the experiment on ACHN renal, in the experiment on T-47D breast and in the experiment on NCI-H23 lung was greater than 100 µM throughout. Besides, the TGI was greater than 100 µM in the experiment on SK-MEL-5 melanoma, greater than 100 µM with UACC-257 melanoma, greater than 100 µM in the experiment on MDA-MB-435 and 65.8 µM in the experiment on HOP-92 NSCLC.

For `CN(C)CCCNC(=O)c1cc(NC(=O)c2cc(NC(=O)CCCn3c4ccccc4c4ccccc43)cn2C)cn1C`, the TGI was greater than 57.7 µM in the experiment with OVCAR-5 ovarian; greater than 67.7 µM in the experiment with A549 NSCLC; greater than 62.2 µM in the experiment with U251 CNS; greater than 65.9 µM with ACHN renal; 28 µM in the experiment on T-47D breast; 39.3 µM in the experiment with NCI-H23 lung. For the same molecule, the TGI with SK-MEL-5 melanoma is 19.6 µM; with UACC-257 melanoma, 41.2 µM; in the experiment on MDA-MB-435, greater than 61.7 µM; in the experiment with HOP-92 NSCLC, 40.1 µM.

As for `O=c1c(Cc2ccc(Cl)cc2)nnc2sc(-c3ccc(-c4ccc(F)c(Cl)c4)o3)nn12`, the TGI with OVCAR-5 ovarian, with A549 NSCLC, with U251 CNS, in the experiment with ACHN renal, in the experiment on T-47D breast and in the experiment on NCI-H23 lung was greater than 100 µM throughout. Also, the TGI with SK-MEL-5 melanoma, in the experiment with UACC-257 melanoma, with MDA-MB-435 and in the experiment on HOP-92 NSCLC was greater than 100 µM throughout.

As to `CC(C)c1cccc(C(C)C)c1NC(=O)/C(CC(=O)CC(c1ccccc1)c1c(O)c2ccccc2oc1=O)=N/O` (stereo not given), the TGI with OVCAR-5 ovarian, in the experiment on A549 NSCLC, with U251 CNS, in the experiment with ACHN renal, in the experiment with T-47D breast and in the experiment with NCI-H23 lung was greater than 100 µM throughout. Moreover, the TGI in the experiment with SK-MEL-5 melanoma, in the experiment on UACC-257 melanoma, in the experiment with MDA-MB-435 and in the experiment with HOP-92 NSCLC was greater than 100 µM throughout.

With `CC1CCC2(NC1)OC1CC3C4CC=C5CC(OC6OC(CO)C(OC7OC(C)C(O)C(O)C7O)C(O)C6OC6OC(C)C(O)C(O)C6O)CCC5(C)C4CCC3(C)C1C2C` (stereo not given), the TGI came to 16.1 µM in the experiment on OVCAR-5 ovarian; 9.59 µM with A549 NSCLC; 9.37 µM with U251 CNS; 14.6 µM in the experiment with ACHN renal; 29 µM with T-47D breast; 27.1 µM with NCI-H23 lung. In addition, the TGI amounted to 33.9 µM with SK-MEL-5 melanoma, 6.67 µM in the experiment on UACC-257 melanoma, 5 µM with MDA-MB-435 and 21.1 µM in the experiment with HOP-92 NSCLC.

Take `N#CC1(O)CCCCCCCCCCC1`: the TGI with OVCAR-5 ovarian, in the experiment with A549 NSCLC, with U251 CNS, in the experiment with ACHN renal, in the experiment with T-47D breast and with NCI-H23 lung was greater than 100 µM in each case. Further, the TGI in the experiment on SK-MEL-5 melanoma, with UACC-257 melanoma, in the experiment on MDA-MB-435 and in the experiment on HOP-92 NSCLC was greater than 100 µM in each case.

Turning to `C/C=C(/C)C(=O)OC1CC(C)[C@H]2CC(=O)C(C)=C2CC1C(C)(C)OC(C)=O` (stereo not given in full), the TGI is greater than 100 µM in the experiment on OVCAR-5 ovarian; greater than 100 µM with A549 NSCLC; greater than 100 µM with U251 CNS; greater than 100 µM with ACHN renal; 46.2 µM in the experiment with T-47D breast; greater than 100 µM with NCI-H23 lung. Moreover, the TGI in the experiment with SK-MEL-5 melanoma was found to be 29.7 µM; in the experiment on UACC-257 melanoma it was 51.6 µM; in the experiment with MDA-MB-435, 68.6 µM; in the experiment with HOP-92 NSCLC, 78 µM.

For `CC(=O)OCC1OC(n2c(-c3ccccc3)c(N=Nc3ccccc3)c(C)c(C#N)c2=S)C(OC(C)=O)C(OC(C)=O)C1OC(C)=O` (stereo not given), the TGI with OVCAR-5 ovarian, with A549 NSCLC, with U251 CNS, in the experiment with ACHN renal, with T-47D breast and with NCI-H23 lung was greater than 100 µM each time. For the same molecule, the TGI in the experiment with SK-MEL-5 melanoma, in the experiment on UACC-257 melanoma, in the experiment with MDA-MB-435 and with HOP-92 NSCLC was greater than 100 µM each time.

On to `N#C/C(C(=O)Nc1ccc(Cl)cc1)=C(/N)N1CCCC1`, for which the TGI with OVCAR-5 ovarian, in the experiment with A549 NSCLC, in the experiment with U251 CNS, with ACHN renal, in the experiment with T-47D breast and with NCI-H23 lung was greater than 100 µM in each case. Moreover, the TGI in the experiment with SK-MEL-5 melanoma, in the experiment with UACC-257 melanoma, in the experiment with MDA-MB-435 and in the experiment with HOP-92 NSCLC was greater than 100 µM each time.

For the molecule `OCCOCn1nncc1Cn1ncc2c(SCc3ccccc3)ncnc21`, the TGI with OVCAR-5 ovarian, with A549 NSCLC, in the experiment on U251 CNS, with ACHN renal, in the experiment with T-47D breast and in the experiment on NCI-H23 lung was greater than 100 µM each time. In addition, the TGI in the experiment with SK-MEL-5 melanoma, with UACC-257 melanoma, with MDA-MB-435 and with HOP-92 NSCLC was greater than 100 µM in each case.

Turning to `Cc1cc2c(O)c(c1)CN(CC(=O)O)Cc1cc(C)cc(c1O)CN(CC(=O)O)Cc1cc(C)cc(c1O)CN(CC(=O)O)C2`, the TGI in the experiment with OVCAR-5 ovarian, in the experiment on A549 NSCLC, in the experiment on U251 CNS, with ACHN renal, in the experiment on T-47D breast and in the experiment on NCI-H23 lung was greater than 100 µM each time. Further, the TGI in the experiment with SK-MEL-5 melanoma, in the experiment on UACC-257 melanoma, in the experiment with MDA-MB-435 and with HOP-92 NSCLC was greater than 100 µM each time.

Regarding `CCP(=O)(OC)C1=CCN(C(=O)OCC[Si](C)(C)C)CC1` (stereo not given), the TGI with OVCAR-5 ovarian, in the experiment with A549 NSCLC, in the experiment on U251 CNS, in the experiment with ACHN renal, in the experiment on T-47D breast and in the experiment with NCI-H23 lung was greater than 100 µM each time. Further, the TGI in the experiment on SK-MEL-5 melanoma, in the experiment with UACC-257 melanoma, with MDA-MB-435 and in the experiment on HOP-92 NSCLC was greater than 100 µM throughout.

With `CC[C@H](Nc1nc(C)nc(N)c1C#N)c1nc2cccc(NCc3ccc(C(=O)NO)cc3)c2c(=O)n1-c1ccccc1`, the GI50 in the experiment on OVCAR-5 ovarian is 1.51 µM; in the experiment on A549 NSCLC, 1.92 µM; with U251 CNS, 1.48 µM; in the experiment with ACHN renal, 1.63 µM; with T-47D breast, 1.86 µM; in the experiment on NCI-H23 lung it was 1.83 µM. Moreover, the GI50 with SK-MEL-5 melanoma was 1.84 µM; with UACC-257 melanoma it was 1.83 µM; in the experiment on MDA-MB-435, 1.93 µM; in the experiment on HOP-92 NSCLC, 1.38 µM. The TGI with OVCAR-5 ovarian was 3.32 µM; with A549 NSCLC, 4.2 µM; in the experiment with U251 CNS it was 2.97 µM; with ACHN renal, 3.69 µM; with T-47D breast, 7.06 µM; in the experiment on NCI-H23 lung it was 4.05 µM. In addition, the TGI in the experiment with SK-MEL-5 melanoma turned out to be 3.47 µM; with UACC-257 melanoma, 4.16 µM; in the experiment with MDA-MB-435, 3.74 µM; in the experiment on HOP-92 NSCLC, 3.07 µM.

On to `CCn1c2ccc(C(=O)CCCN3CCCCC3)cc2c2cc(C(=O)CCCN3CCCCC3)ccc21`, for which the TGI with OVCAR-5 ovarian came out at 22.8 µM; in the experiment with A549 NSCLC, 3.86 µM; in the experiment on U251 CNS, 4.73 µM; with ACHN renal, 15.8 µM; with T-47D breast, 49.9 µM; in the experiment with NCI-H23 lung, 4.49 µM. The TGI worked out at 2.92 µM in the experiment on SK-MEL-5 melanoma, 3.77 µM in the experiment on UACC-257 melanoma, 3.3 µM in the experiment with MDA-MB-435 and 30.3 µM with HOP-92 NSCLC.

With `C1=C2C3=[N+](CCCCC3)CC2Cc2ccsc21` (stereo not given), the TGI in the experiment on OVCAR-5 ovarian, in the experiment with A549 NSCLC, in the experiment on U251 CNS, with ACHN renal, in the experiment with T-47D breast and with NCI-H23 lung was greater than 100 µM in each case. The TGI in the experiment with SK-MEL-5 melanoma was greater than 100 µM; in the experiment with UACC-257 melanoma it was 85.3 µM; in the experiment with MDA-MB-435 it was greater than 100 µM; in the experiment on HOP-92 NSCLC, greater than 100 µM.

As to `Cc1cc2ncn(C3CCCCO3)c2cc1C` (stereo not given), the TGI with OVCAR-5 ovarian, in the experiment with A549 NSCLC, in the experiment with U251 CNS, in the experiment on ACHN renal, in the experiment on T-47D breast and in the experiment on NCI-H23 lung was greater than 100 µM in each case. For the same molecule, the TGI with SK-MEL-5 melanoma, in the experiment on UACC-257 melanoma, in the experiment on MDA-MB-435 and in the experiment with HOP-92 NSCLC was greater than 100 µM throughout.

`COC(=O)C1C(C(=O)OC)C2(OC(c3ccc(Cl)cc3)=CC2=O)C12OC(c1ccc(Cl)cc1)=CC2=O` (stereo not given): the TGI in the experiment on OVCAR-5 ovarian is 95.1 µM; in the experiment on A549 NSCLC, greater than 100 µM; in the experiment with U251 CNS, greater than 100 µM; with ACHN renal, 39.4 µM; with T-47D breast it was 63.3 µM; in the experiment on NCI-H23 lung it was 52.2 µM. The TGI was 37.9 µM with SK-MEL-5 melanoma, 48.8 µM in the experiment on UACC-257 melanoma, greater than 100 µM in the experiment with MDA-MB-435 and 37.6 µM in the experiment on HOP-92 NSCLC.

Regarding `Nc1nc(Cl)cc(NCC2(O)CC2)n1`, the TGI in the experiment with OVCAR-5 ovarian, with A549 NSCLC, in the experiment on U251 CNS, in the experiment on ACHN renal, with T-47D breast and with NCI-H23 lung was greater than 100 µM each time. The TGI in the experiment with SK-MEL-5 melanoma, in the experiment with UACC-257 melanoma, in the experiment on MDA-MB-435 and in the experiment with HOP-92 NSCLC was greater than 100 µM in each case.

For `CCCCSc1nsc(N(C(=O)c2ccccc2)C(=O)c2ccccc2)n1`, the TGI with OVCAR-5 ovarian is 89.4 µM; in the experiment with A549 NSCLC it was greater than 100 µM; in the experiment on U251 CNS it was greater than 100 µM; in the experiment on ACHN renal, greater than 100 µM; in the experiment with T-47D breast it was greater than 100 µM; with NCI-H23 lung, greater than 100 µM. The TGI is 36.6 µM in the experiment on SK-MEL-5 melanoma, 74.9 µM in the experiment with UACC-257 melanoma, greater than 100 µM in the experiment on MDA-MB-435 and 75 µM in the experiment on HOP-92 NSCLC.

With `CC1C(NNc2ccccc2)Oc2cc3c(cc2C1c1ccccc1O)OCO3` (stereo not given), the TGI was found to be 19.1 µM in the experiment with OVCAR-5 ovarian; 15.2 µM with A549 NSCLC; 22.4 µM with U251 CNS; 13.1 µM with ACHN renal; 16.2 µM with T-47D breast; 26.5 µM with NCI-H23 lung. For the same molecule, the TGI was found to be 24.1 µM in the experiment on SK-MEL-5 melanoma, 20.5 µM with UACC-257 melanoma, 12.5 µM with MDA-MB-435 and 26.9 µM with HOP-92 NSCLC.

For the molecule `O=c1[nH]c2nc3ccccc3nc2[nH]c1=O`, the TGI in the experiment on OVCAR-5 ovarian, in the experiment with A549 NSCLC, in the experiment on U251 CNS, in the experiment on ACHN renal, in the experiment on T-47D breast and in the experiment on NCI-H23 lung was greater than 100 µM each time. For the same molecule, the TGI with SK-MEL-5 melanoma, with UACC-257 melanoma, in the experiment on MDA-MB-435 and in the experiment with HOP-92 NSCLC was greater than 100 µM throughout.
